The target of the test is Tyrosine-protein kinase BTK (Homo sapiens, UniProt Q06187). Kind of test: Lanthscreen Eu Kinase Binding assay: A Lanthscreen Eu Kinase Binding assay (Life Technologies) was performed to quantitate the ability of test compounds to bind to BTK. The assay is based on the binding and displacement of Alexa Fluor647-labeled Kinase Tracer #236 to the ATP-binding site of human full length His-tagged BTK (Life Technologies cat # PV3587) with TR-FRET detection using a europium-labeled anti-His antibody. The assay was assembled in 384-well low volume NBS black plates (Corning) where 2 nM BTK and test compound in DMSO at varying concentrations were pre-incubated for 30 min at 28° C. in assay buffer consisting of 50 mM HEPES, pH 7.4, 10 mM MgCl2, 1 mM EGTA. 100 μM Na3VO4 and 0.01% Brij 35. Then, 2 nM of Eu-anti His antibody and 30 nM Kinase Tracer were added and incubated for […] at 28° C. Following incubation, TR-FRET signal was read on an Envision plate reader (Excitation: 340 nm; Emissions: 615 and 665 nm). The 665: 615 nm emission ratio was calculated and converted to POC compared to control and blank wells.
Sequence of Tyrosine-protein kinase BTK (Q06187 whole entry): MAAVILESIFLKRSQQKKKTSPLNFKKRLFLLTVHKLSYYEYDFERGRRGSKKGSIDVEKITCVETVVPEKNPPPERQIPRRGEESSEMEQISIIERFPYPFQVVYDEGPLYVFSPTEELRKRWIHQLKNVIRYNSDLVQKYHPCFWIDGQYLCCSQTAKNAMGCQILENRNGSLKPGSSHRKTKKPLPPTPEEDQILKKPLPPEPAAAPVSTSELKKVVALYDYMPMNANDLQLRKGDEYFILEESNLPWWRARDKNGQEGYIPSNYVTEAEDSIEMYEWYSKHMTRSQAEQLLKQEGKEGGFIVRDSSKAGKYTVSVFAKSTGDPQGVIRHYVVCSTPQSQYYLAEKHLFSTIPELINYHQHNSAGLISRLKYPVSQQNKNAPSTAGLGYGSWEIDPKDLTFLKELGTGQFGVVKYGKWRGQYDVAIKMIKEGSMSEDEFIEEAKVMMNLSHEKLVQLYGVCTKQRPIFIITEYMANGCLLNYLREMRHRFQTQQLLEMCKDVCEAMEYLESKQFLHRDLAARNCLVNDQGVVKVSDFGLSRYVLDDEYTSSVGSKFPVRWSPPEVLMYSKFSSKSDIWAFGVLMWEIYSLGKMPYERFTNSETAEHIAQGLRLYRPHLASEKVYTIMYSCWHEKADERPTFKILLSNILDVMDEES

For `C=CC(=O)N1CC(c2cc3cc(C4CC4)ccc3c(=O)n2-c2cccc(-c3ccnc(N)c3)c2CO)C1`, the IC50 is 0.9 nM.

As a reminder, the IC50 is the midpoint of a concentration-inhibition curve.

Source of the values: ChEMBL document CHEMBL5727601, “Isoquinolones as BTK inhibitors” (2020).
